Tests used:
[1] = target: T1, Serine/threonine-protein kinase ULK1 (Homo sapiens) (UniProt O75385); assay: Selectivity interaction (KinomeScan (DiscoverX)) EUB0000595a ULK1; settings: at 10 µM
T1 sequence (whole entry): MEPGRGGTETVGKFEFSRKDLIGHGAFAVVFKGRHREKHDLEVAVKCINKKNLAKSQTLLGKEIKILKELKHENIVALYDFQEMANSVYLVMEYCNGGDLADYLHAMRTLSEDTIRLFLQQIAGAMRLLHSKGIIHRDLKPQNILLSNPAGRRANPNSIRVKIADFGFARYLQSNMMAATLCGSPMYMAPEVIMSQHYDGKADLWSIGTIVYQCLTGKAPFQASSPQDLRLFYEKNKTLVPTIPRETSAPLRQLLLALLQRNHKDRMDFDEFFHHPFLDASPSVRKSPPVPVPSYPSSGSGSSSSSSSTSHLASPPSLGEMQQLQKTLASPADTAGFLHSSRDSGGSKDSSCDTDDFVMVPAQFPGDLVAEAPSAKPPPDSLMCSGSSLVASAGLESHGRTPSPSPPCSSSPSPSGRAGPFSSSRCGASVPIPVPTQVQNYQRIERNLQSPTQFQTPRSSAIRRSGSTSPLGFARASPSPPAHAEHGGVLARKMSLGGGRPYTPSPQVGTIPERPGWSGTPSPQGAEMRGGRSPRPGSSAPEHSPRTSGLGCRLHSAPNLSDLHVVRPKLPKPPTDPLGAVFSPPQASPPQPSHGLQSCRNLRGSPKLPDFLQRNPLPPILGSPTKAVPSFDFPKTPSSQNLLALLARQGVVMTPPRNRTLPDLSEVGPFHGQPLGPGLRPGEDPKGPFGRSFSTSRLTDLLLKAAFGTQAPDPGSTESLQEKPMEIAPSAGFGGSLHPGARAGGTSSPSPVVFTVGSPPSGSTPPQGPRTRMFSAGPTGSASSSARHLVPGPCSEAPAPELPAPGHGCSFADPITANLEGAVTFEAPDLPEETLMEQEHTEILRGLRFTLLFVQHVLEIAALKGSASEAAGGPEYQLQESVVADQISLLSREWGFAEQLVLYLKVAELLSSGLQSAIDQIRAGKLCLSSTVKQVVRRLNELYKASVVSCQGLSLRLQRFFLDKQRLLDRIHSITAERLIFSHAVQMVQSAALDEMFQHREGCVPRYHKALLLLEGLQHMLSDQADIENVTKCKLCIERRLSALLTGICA

[2] = target: T2, Mitogen-activated protein kinase kinase kinase kinase 3 (Homo sapiens) (UniProt Q8IVH8); assay: Selectivity interaction (KinomeScan (DiscoverX)) EUB0001049a MAP4K3; settings: at 1 µM
T2 sequence (whole entry): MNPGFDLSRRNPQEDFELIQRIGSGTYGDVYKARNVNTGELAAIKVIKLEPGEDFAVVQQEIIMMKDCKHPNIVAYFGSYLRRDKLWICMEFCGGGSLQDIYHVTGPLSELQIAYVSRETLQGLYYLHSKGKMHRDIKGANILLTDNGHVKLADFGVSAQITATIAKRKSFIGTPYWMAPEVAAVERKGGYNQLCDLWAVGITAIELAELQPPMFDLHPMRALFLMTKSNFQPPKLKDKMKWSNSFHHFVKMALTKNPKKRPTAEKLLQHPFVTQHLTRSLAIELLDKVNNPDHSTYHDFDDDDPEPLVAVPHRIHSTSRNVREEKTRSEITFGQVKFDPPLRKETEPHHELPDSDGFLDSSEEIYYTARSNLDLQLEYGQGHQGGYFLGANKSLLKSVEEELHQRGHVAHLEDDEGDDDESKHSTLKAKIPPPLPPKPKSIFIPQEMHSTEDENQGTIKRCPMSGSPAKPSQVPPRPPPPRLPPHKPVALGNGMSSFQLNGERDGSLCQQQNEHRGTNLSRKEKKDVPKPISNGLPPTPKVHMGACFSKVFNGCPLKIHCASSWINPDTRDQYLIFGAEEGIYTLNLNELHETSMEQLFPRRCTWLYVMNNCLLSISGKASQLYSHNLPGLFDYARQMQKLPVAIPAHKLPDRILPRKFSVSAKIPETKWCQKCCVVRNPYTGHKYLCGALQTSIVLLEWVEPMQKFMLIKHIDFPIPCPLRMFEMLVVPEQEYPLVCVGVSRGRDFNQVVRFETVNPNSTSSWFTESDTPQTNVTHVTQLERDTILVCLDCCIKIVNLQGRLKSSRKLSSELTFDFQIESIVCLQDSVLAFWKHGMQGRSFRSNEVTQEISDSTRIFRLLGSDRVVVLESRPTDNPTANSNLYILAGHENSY

[3] = target: Mitogen-activated protein kinase 7 (Homo sapiens) (UniProt Q13164); assay: Selectivity interaction (KinomeScan (DiscoverX)) EUB0001049a MAPK7; settings: at 1 µM
Chain of Mitogen-activated protein kinase 7 (Homo sapiens) (Q13164 2-816 limits assumed): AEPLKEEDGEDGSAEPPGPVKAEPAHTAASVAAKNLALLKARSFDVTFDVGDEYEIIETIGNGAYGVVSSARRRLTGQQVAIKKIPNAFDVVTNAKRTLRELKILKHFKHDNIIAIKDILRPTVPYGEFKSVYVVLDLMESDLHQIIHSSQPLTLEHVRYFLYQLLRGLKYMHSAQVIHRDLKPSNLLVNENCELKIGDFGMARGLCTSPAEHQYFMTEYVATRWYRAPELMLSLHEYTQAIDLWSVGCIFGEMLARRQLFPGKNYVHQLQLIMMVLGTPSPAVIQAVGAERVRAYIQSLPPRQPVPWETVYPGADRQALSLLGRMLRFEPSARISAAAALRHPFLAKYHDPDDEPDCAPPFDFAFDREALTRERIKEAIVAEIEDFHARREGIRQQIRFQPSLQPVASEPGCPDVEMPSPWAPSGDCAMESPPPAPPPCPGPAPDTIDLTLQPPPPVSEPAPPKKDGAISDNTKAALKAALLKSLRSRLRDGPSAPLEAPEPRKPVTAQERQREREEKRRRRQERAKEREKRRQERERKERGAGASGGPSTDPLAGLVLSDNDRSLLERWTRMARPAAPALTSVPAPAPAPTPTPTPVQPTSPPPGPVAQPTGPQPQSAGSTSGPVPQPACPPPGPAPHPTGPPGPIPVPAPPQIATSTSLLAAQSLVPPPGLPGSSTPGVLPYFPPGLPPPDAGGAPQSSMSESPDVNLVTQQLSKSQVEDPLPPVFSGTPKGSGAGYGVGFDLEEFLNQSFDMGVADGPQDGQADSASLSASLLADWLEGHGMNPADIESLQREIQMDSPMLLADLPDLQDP

[4] = target: Protein-tyrosine kinase 6 (Homo sapiens, UniProt Q13882)
Chain of Protein-tyrosine kinase 6 (Q13882 whole entry): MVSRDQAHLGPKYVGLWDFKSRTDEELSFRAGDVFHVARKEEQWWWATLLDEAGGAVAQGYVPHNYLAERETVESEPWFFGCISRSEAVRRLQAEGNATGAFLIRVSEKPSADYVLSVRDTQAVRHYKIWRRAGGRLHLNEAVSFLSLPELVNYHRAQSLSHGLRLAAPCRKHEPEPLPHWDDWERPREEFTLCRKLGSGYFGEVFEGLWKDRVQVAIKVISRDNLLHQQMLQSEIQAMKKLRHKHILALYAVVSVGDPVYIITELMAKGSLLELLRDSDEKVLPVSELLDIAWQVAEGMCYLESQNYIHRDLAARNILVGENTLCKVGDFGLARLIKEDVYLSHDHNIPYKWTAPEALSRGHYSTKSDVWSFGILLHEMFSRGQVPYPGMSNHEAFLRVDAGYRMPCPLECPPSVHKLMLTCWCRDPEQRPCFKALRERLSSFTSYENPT

MAO-B (MAOB) = MAO-B (MAOB) (Homo sapiens, UniProt P27338); assay: Selectivity interaction (Panel of kinases, GPCRs, ion channels and transporters (enzymatic assay)) EUB0000223bCl MAOB
Chain of MAO-B (MAOB) (P27338 whole entry): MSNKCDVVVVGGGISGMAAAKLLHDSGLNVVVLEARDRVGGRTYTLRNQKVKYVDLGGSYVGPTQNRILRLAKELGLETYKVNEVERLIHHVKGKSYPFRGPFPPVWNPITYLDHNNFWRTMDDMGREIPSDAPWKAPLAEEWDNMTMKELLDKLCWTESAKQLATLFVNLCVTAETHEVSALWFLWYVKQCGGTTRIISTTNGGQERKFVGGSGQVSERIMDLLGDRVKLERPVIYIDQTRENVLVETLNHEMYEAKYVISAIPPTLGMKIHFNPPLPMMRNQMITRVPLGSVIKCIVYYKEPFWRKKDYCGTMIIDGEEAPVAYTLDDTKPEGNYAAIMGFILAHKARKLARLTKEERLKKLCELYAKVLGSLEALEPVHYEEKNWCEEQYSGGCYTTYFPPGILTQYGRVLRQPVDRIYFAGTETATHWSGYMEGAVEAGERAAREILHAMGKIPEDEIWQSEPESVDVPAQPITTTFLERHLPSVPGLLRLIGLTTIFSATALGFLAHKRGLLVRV

[5] = target: Cyclin-dependent kinase 5 (Homo sapiens, UniProt Q00535); assay: Selectivity interaction (ActivX KiNativ screen (kinase selectivity in THP-1 cell lysates)) EUB0000639a CDK5; format: subcellular; settings: lysate, at 1 µM
Chain of Cyclin-dependent kinase 5 (Q00535 whole entry, looked up): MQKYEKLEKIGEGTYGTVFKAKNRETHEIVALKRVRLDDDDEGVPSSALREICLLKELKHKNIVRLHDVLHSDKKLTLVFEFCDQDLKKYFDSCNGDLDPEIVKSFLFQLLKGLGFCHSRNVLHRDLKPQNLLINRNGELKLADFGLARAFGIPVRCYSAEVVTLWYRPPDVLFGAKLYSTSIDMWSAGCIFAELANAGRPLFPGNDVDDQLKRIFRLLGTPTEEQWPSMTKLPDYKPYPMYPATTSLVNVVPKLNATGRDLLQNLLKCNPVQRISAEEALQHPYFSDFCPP

## COCC(=O)NC/C=C/c1ccc2ncnc(Nc3ccc(Oc4ccc(C)nc4)c(C)c3)c2c1 [CP-724714]
[1]
  % of control: 47%

## COc1cc(Nc2nc(C)cc(-c3cnn4nc(OC)ccc34)n2)cc(C(F)(F)F)c1
[2]
  % of control: 100%
[3]
  % of control: 83%

## CCc1cccc(CC)c1NC(=O)c1nn(C)c2c1CCc1cnc(Nc3ccc(C(=O)NC4CCN(C)CC4)cc3OC(F)(F)F)nc1-2
[4]
  IC50: > 10 µM

## COc1cc(C(=O)N2CC[C@@H](O)[C@@H](N)C2)cc2nc(-c3cc4ccccc4n3CC3CC3)n(C)c12
MAO-B (MAOB)
  XC50: 15.8 µM

## CC[C@@H]1[C@H](F)C(=O)N[C@@H]1COc1nccc2cc(C(N)=O)c(OC)cc12 [ZIMLOVISERTIB]
[5]
  % of inhibition: -3.5%

From ChEMBL document CHEMBL5465560, “Selectivity Literature for EUbOPEN Chemogenomic Library” (2024)
